Data published in patent EP1247803A2, “Indolinone compounds suitable for modulation of protein kinases” (Sugen, Inc., priority 1996, dated 1998).

Assays:
PDGF-R = PDGF-R (Homo sapiens, UniProt P09619); assay: PDGF-R ELISA; assay type: cell-based
Text: A PDGF-R ELISA is described in International Patent Publication No. WO 96/40116, published December 19, 1996 by Tang et al.

FLK-1 receptor = target: T1, FLK-1 receptor (Mus musculus, UniProt P35918); assay: FLK-1 ELISA (kinase activity of the FLK-1 receptor in FLK-1/NIH3T3 cells, VEGF stimulated); assay type: cell-based
T1 construct: expressed in transfected cells; host or cells: NIH3T3 C7#3
How it was run: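 NIH3T3 C7#3 cells expressing FLK-1 were seeded at 25.000 cells/well, serum-starved overnight in 0.1% FBS, then treated with compound for two hours at 37°C (final DMSO 0.5%) before VEGF stimulation. Receptor was captured on anti-rabbit IgG-coated ELISA plates bearing affinity-purified anti-FLK-1 antiserum.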

MET = MET biochemical kinase assay; set-up: species or system human; concentration or dose not given beside the values
How it was run: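 Colorimetric signal from an HRP-linked anti-phosphotyrosine antibody with TMB measures phosphate incorporated into immobilised MET. The receptor is pulled from lysates by a polyclonal antibody against its cytoplasmic domain, then reacts in ATP- and metal-containing buffer with test compound.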

T1 sequence (P35918 20-1345): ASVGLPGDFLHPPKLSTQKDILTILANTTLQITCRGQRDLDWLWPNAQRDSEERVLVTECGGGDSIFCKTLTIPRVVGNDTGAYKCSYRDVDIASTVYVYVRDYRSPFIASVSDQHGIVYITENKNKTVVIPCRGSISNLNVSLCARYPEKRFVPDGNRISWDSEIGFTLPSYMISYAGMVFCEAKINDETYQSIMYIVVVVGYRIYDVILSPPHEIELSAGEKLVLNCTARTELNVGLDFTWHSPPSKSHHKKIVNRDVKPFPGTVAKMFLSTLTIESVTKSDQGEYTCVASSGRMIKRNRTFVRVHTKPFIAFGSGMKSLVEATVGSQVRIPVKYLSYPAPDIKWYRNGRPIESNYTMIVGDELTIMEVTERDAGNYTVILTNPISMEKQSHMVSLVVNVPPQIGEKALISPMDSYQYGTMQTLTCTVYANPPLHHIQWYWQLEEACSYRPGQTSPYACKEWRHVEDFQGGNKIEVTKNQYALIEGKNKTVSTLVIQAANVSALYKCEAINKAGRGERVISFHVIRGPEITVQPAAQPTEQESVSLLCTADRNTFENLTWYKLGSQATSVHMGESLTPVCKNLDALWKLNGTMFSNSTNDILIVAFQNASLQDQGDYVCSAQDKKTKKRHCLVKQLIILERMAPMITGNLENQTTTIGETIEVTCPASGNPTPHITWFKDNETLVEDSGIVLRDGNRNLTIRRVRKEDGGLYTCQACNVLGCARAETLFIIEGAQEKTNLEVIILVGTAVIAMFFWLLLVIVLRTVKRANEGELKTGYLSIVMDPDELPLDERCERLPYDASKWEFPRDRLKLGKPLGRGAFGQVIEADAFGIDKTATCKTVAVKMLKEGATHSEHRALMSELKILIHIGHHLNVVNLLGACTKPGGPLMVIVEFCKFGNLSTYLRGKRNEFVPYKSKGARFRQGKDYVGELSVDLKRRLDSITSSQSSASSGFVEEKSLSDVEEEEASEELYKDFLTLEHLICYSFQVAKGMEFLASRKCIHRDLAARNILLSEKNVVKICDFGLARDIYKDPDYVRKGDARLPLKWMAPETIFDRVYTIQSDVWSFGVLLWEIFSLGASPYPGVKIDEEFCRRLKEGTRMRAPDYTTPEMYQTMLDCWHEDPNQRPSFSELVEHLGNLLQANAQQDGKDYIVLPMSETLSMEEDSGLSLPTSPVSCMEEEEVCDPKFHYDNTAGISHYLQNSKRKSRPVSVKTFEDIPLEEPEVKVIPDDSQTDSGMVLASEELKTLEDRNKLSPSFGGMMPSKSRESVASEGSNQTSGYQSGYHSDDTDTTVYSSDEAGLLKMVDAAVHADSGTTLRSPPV
Chain of PDGF-R (P09619 33-1106, species assumed): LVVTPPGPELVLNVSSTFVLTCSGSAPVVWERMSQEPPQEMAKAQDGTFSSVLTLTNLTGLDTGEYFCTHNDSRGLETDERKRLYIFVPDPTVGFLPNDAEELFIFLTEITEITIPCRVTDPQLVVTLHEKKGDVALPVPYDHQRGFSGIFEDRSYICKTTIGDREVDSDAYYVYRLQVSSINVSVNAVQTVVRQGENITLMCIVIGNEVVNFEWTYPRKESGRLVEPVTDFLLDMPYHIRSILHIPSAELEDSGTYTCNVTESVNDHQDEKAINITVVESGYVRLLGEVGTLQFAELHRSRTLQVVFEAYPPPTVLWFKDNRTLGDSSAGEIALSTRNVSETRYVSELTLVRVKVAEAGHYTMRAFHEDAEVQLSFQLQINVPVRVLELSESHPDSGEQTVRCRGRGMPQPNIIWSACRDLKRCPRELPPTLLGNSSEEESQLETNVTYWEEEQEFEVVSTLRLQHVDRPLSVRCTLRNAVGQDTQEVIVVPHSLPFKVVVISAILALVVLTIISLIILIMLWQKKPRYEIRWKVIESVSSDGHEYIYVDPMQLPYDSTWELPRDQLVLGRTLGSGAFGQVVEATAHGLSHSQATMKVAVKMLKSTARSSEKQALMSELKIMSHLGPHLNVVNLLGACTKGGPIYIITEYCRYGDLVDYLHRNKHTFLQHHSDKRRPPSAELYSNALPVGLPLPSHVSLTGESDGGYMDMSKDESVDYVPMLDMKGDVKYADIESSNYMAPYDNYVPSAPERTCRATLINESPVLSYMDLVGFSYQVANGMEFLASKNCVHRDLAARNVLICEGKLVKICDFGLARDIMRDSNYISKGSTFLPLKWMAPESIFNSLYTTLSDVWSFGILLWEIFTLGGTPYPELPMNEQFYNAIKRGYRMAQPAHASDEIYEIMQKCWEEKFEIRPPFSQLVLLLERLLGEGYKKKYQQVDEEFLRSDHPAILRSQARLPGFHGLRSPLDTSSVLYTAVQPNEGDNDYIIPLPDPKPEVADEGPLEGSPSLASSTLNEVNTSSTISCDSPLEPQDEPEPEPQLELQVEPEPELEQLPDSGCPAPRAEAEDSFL

## CCOc1cccc(C=C2C(=O)Nc3c(Br)cc(Br)cc32)c1O [10734/A02]
PDGF-R
  PDGF Kinase %Inhibition: -3.8%
FLK-1 receptor
  Fik Kinase %Inhibition: 4.1%
MET
  Met Kinase % Inhibition: 51.1%

## CCOc1cccc(C=C2C(=O)Nc3ccc(I)cc32)c1O [10734/B02]
PDGF-R
  PDGF Kinase %Inhibition: -2.9%
FLK-1 receptor
  Fik Kinase %Inhibition: 8.5%
MET
  Met Kinase % Inhibition: 61.9%

## Cc1cc(C=C2C(=O)Nc3ccc(S(=O)(=O)N4CCOCC4)cc32)cc(C)c1OCc1ccccc1 [10733/F07]
PDGF-R
  PDGF Kinase %Inhibition: 1.7%
FLK-1 receptor
  Fik Kinase %Inhibition: 16.4%
MET
  Met Kinase % Inhibition: -16.4%

## CCOc1cccc(C=C2C(=O)Nc3ccc(S(=O)(=O)Nc4ccc(C(F)(F)F)cc4)cc32)c1O [10734/E02]
PDGF-R
  PDGF Kinase %Inhibition: 50.1%
FLK-1 receptor
  Fik Kinase %Inhibition: 7.9%
MET
  Met Kinase % Inhibition: 66.9%

## COc1c([N+](=O)[O-])cc(C=C2C(=O)Nc3ccc(S(=O)(=O)Nc4ccc(C(F)(F)F)cc4)cc32)cc1C(C)(C)C [10733/E03]
PDGF-R
  PDGF Kinase %Inhibition: 43.1%
FLK-1 receptor
  Fik Kinase %Inhibition: 42.6%
MET
  Met Kinase % Inhibition: 26.8%

## Cc1cc(C=C2C(=O)Nc3ccc(CCCl)cc32)cc(C)c1OCc1ccccc1 [10733/G07]
PDGF-R
  PDGF Kinase %Inhibition: -6.8%
FLK-1 receptor
  Fik Kinase %Inhibition: 19.5%
MET
  Met Kinase % Inhibition: 8.5%

## O=C1Nc2ccc(S(=O)(=O)N3CCOCC3)cc2C1=Cc1cc([N+](=O)[O-])ccc1O [10733/F10]
PDGF-R
  PDGF Kinase %Inhibition: -5.6%
FLK-1 receptor
  Fik Kinase %Inhibition: 8.5%
MET
  Met Kinase % Inhibition: 24.4%

## CCN(CC)c1ccc(C=C2C(=O)Nc3c(Br)cc(Br)cc32)c(O)c1 [10734/A05]
PDGF-R
  PDGF Kinase %Inhibition: 2.9%
FLK-1 receptor
  Fik Kinase %Inhibition: 9.1%
MET
  Met Kinase % Inhibition: 69.9%

## Cc1c(Br)ccc2c1C(=Cc1ccc([N+](=O)[O-])cc1)C(=O)N2 [10734/C06]
PDGF-R
  PDGF Kinase %Inhibition: -0.2%
FLK-1 receptor
  Fik Kinase %Inhibition: -1.7%
MET
  Met Kinase % Inhibition: 48.3%

## O=C1Nc2ccc(I)cc2C1=Cc1cccc(F)c1O [10734/B08]
PDGF-R
  PDGF Kinase %Inhibition: -2.4%
FLK-1 receptor
  Fik Kinase %Inhibition: -0.5%
MET
  Met Kinase % Inhibition: 56.1%

## COc1c([N+](=O)[O-])cc(C=C2C(=O)Nc3ccc(CCCl)cc32)cc1C(C)(C)C [10733/G03]
PDGF-R
  PDGF Kinase %Inhibition: 12.7%
FLK-1 receptor
  Fik Kinase %Inhibition: 24.7%
MET
  Met Kinase % Inhibition: 30.5%

## Cc1c(Br)ccc2c1C(=Cc1ccc(Br)s1)C(=O)N2 [10734/C11]
PDGF-R
  PDGF Kinase %Inhibition: 9.1%
FLK-1 receptor
  Fik Kinase %Inhibition: 6.3%
MET
  Met Kinase % Inhibition: 23.9%

## COc1c([N+](=O)[O-])cc(C=C2C(=O)Nc3ccc(S(=O)(=O)N4CCOCC4)cc32)cc1C(C)(C)C [10733/F03]
PDGF-R
  PDGF Kinase %Inhibition: 24.5%
FLK-1 receptor
  Fik Kinase %Inhibition: 17.5%
MET
  Met Kinase % Inhibition: 24.2%

## O=C1Nc2c(Br)cc(Br)cc2C1=Cc1ccc(O)c(Br)c1 [10734/A09]
PDGF-R
  PDGF Kinase %Inhibition: -9.5%
FLK-1 receptor
  Fik Kinase %Inhibition: -7.9%
MET
  Met Kinase % Inhibition: 88.4%

## O=C1Nc2c(Br)cc(Br)cc2C1=Cc1ccc(Br)s1 [10734/A11]
PDGF-R
  PDGF Kinase %Inhibition: 5.5%
FLK-1 receptor
  Fik Kinase %Inhibition: 6.3%
MET
  Met Kinase % Inhibition: 51.9%

## O=C1Nc2ccc(I)cc2C1=Cc1ccc(O)c(Br)c1 [10734/B09]
PDGF-R
  PDGF Kinase %Inhibition: 12.6%
FLK-1 receptor
  Fik Kinase %Inhibition: -32.3%
MET
  Met Kinase % Inhibition: 94.3%

## CC(C)(C)c1cc(C=C2C(=O)Nc3ccc(S(=O)(=O)Nc4ccc(C(F)(F)F)cc4)cc32)cc(C(C)(C)C)c1OCc1ccccc1 [10733/E05]
PDGF-R
  PDGF Kinase %Inhibition: -33.2%
FLK-1 receptor
  Fik Kinase %Inhibition: 10.6%
MET
  Met Kinase % Inhibition: 2.9%

## O=C1Nc2ccc(I)cc2C1=Cc1cc(Cl)cc(Cl)c1O [10734/B03]
PDGF-R
  PDGF Kinase %Inhibition: 13.0%
FLK-1 receptor
  Fik Kinase %Inhibition: 21.7%
MET
  Met Kinase % Inhibition: 90.1%

## O=C1Nc2c(Br)cc(Br)cc2C1=Cc1ccc([N+](=O)[O-])cc1 [10734/A06]
PDGF-R
  PDGF Kinase %Inhibition: -9.9%
FLK-1 receptor
  Fik Kinase %Inhibition: -6.4%
MET
  Met Kinase % Inhibition: 46.9%

## CC(C)(C)c1ccc(C=C2C(=O)Nc3c(Br)cc(Br)cc32)cc1 [10734/A10]
PDGF-R
  PDGF Kinase %Inhibition: 26.3%
FLK-1 receptor
  Fik Kinase %Inhibition: 4.4%
MET
  Met Kinase % Inhibition: 55.4%

## Cc1c(Br)ccc2c1C(=Cc1ccc(O)c(Br)c1)C(=O)N2 [10734/C09]
PDGF-R
  PDGF Kinase %Inhibition: 11.3%
FLK-1 receptor
  Fik Kinase %Inhibition: -13.3%
MET
  Met Kinase % Inhibition: 88.6%

## COc1c(C)cc(C=C2C(=O)Nc3ccc(S(=O)(=O)N4CCOCC4)cc32)cc1C [10733/F06]
PDGF-R
  PDGF Kinase %Inhibition: -4.8%
FLK-1 receptor
  Fik Kinase %Inhibition: 19.3%
MET
  Met Kinase % Inhibition: 20.9%

## COc1c(C)cc(C=C2C(=O)Nc3ccc(CCCl)cc32)cc1C [10733/G06]
PDGF-R
  PDGF Kinase %Inhibition: 0.1%
FLK-1 receptor
  Fik Kinase %Inhibition: 37.0%
MET
  Met Kinase % Inhibition: 0.8%

## O=C1Nc2ccc(I)cc2C1=Cc1cc(Cl)ccc1O [10734/B04]
PDGF-R
  PDGF Kinase %Inhibition: 14.4%
FLK-1 receptor
  Fik Kinase %Inhibition: 2.8%
MET
  Met Kinase % Inhibition: 88.4%

## Cc1c(Br)ccc2c1C(=Cc1ccc(C(C)(C)C)cc1)C(=O)N2 [10734/C10]
PDGF-R
  PDGF Kinase %Inhibition: 17.4%
FLK-1 receptor
  Fik Kinase %Inhibition: 10.1%
MET
  Met Kinase % Inhibition: 11.6%

## COc1c(O)ccc(C=C2C(=O)Nc3ccc(S(=O)(=O)Nc4ccc(C(F)(F)F)cc4)cc32)c1[N+](=O)[O-] [10733/E11]
PDGF-R
  PDGF Kinase %Inhibition: 15.9%
FLK-1 receptor
  Fik Kinase %Inhibition: 5.5%
MET
  Met Kinase % Inhibition: 71.8%

## CNS(=O)(=O)c1ccc2c(c1)C(=Cc1cccc(F)c1O)C(=O)N2 [10734/D08]
PDGF-R
  PDGF Kinase %Inhibition: 2.0%
FLK-1 receptor
  Fik Kinase %Inhibition: 2.5%
MET
  Met Kinase % Inhibition: 49.8%

## O=C1Nc2ccc(S(=O)(=O)N3CCOCC3)cc2C1=Cc1cc(Br)ccc1O [10733/F09]
PDGF-R
  PDGF Kinase %Inhibition: -0.3%
FLK-1 receptor
  Fik Kinase %Inhibition: -2.1%
MET
  Met Kinase % Inhibition: 52.8%

## Cc1c(Br)ccc2c1C(=Cc1cc(Cl)cc(Cl)c1O)C(=O)N2 [10734/C03]
PDGF-R
  PDGF Kinase %Inhibition: 24.5%
FLK-1 receptor
  Fik Kinase %Inhibition: -5.6%
MET
  Met Kinase % Inhibition: 88.2%

## CNS(=O)(=O)c1ccc2c(c1)C(=Cc1cc(Br)cc(Br)c1O)C(=O)N2 [10734/D07]
PDGF-R
  PDGF Kinase %Inhibition: 28.1%
FLK-1 receptor
  Fik Kinase %Inhibition: 14.7%
MET
  Met Kinase % Inhibition: 92.0%

## O=C1Nc2c(Br)cc(Br)cc2C1=Cc1cc(Cl)cc(Cl)c1O [10734/A03]
PDGF-R
  PDGF Kinase %Inhibition: 22.3%
FLK-1 receptor
  Fik Kinase %Inhibition: 10.1%
MET
  Met Kinase % Inhibition: 87.8%

## O=C1Nc2ccc(S(=O)(=O)Nc3ccc(C(F)(F)F)cc3)cc2C1=Cc1cc([N+](=O)[O-])ccc1O [10733/E10]
PDGF-R
  PDGF Kinase %Inhibition: 10.3%
FLK-1 receptor
  Fik Kinase %Inhibition: 5.5%
MET
  Met Kinase % Inhibition: 52.8%

## CC(C)(C)c1cc(C=C2C(=O)Nc3ccc(CCCl)cc32)cc(I)c1OCc1ccccc1 [10733/G02]
PDGF-R
  PDGF Kinase %Inhibition: -7.6%
FLK-1 receptor
  Fik Kinase %Inhibition: 8.3%
MET
  Met Kinase % Inhibition: 64.5%
